Measured values reported in article PMC1459859, “Display of a thermostable lipase on the surface of a solvent-resistant bacterium, Pseudomonas putida GM730, and its applications in whole-cell biocatalysis” (BMC Biotechnology, 2006).

Assays:
[1] = biological target: T1, TliA (thermostable lipase), displayed as INPNC-TliA (Pseudomonas fluorescens, UniProt Q9ZG91); experiment: whole-cell chiral resolution, HPLC; assay type: cell-based; settings: INPNC-TliA displayed on P. putida GM730/pJHC13 cells; 50 mM racemic substrate; two-phase PBS-isooctane; 25 °C; 72 h; R-selective
T1 sequence (Q9ZG91 1-476): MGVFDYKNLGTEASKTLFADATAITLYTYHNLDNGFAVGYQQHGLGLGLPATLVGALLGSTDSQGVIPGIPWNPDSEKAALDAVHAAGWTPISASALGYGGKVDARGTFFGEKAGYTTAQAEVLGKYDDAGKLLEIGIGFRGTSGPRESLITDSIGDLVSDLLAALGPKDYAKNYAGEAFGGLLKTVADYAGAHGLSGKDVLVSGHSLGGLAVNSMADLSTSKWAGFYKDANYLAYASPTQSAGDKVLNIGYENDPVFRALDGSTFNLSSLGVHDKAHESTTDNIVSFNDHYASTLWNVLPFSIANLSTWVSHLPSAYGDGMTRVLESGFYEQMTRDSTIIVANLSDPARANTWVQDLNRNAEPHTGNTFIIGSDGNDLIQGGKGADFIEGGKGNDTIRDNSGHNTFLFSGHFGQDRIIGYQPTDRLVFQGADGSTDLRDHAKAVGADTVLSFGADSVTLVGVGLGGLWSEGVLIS

[2] = biological target: T1, TliA (thermostable lipase), displayed as INPNC-TliA; experiment: whole-cell lipase activity, spectrophotometric; assay type: cell-based; settings: INPNC-TliA displayed on P. putida GM730/pJHC13 cells; PBS-washed; induced with 1 mM IPTG

Compound	whole-cell chiral resolution, HPLC [1]	whole-cell lipase activity, spectrophotometric [2]
CC(C(=O)Oc1ccc([N+](=O)[O-])cc1)c1ccccc1 (racemic) [4-nitrophenyl 2-phenylpropionate]	enantiomeric excesses of the surviving p-nitrophenyl 2-phenylpropionate and the product (R) 2-phenylpropionic acid	
CCCCCCCCCCCCCCCC(=O)Oc1ccc([N+](=O)[O-])cc1 [p-nitrophenyl palmitate]		whole-cell enzyme activities were measured with p-nitrophenyl palmitate (pNPP), which does not enter the cells
